From US6123943A, “NF-KB activity inhibitor” (Kaken Shoyaku Co., Ltd., priority 1997, dated 2000)

Columns and labels:
[1] = Acute toxicity test (LD50); settings: mouse, in vivo, male mice
[2] = test system: NF-κB; assay: Gel shift assay: inhibition of NF-κB binding activation in U1 cells; type: cell-based, human; settings: for inhibition at 0.1 µg/mL / inhibition at 1 µg/mL: Homo sapiens
Experimental: Inhibition Action on NF-κB Binding Activation
In order to examine the action of a test compound cepharanthine to inhibit NF-κB binding activation, U1 [a cell strain derived from HIV-1 (HIV type 1) latent infection human monocyte] cells were stimulated or not stimulated with phorbol 12-myristate 13-acetate (PMA) in the presence or absence of the test compound, and the following assay was carried out using a nucleoprotein extract obtained from the resulting cells.
Gel shift assay was carried out using an NF-κB probe of HIV-1. A double-stranded DNA fragment of an NF-κB site-like sequence, 5'-AGTTGAGGGGACTTTCCCAGGC-3' from the transcription initiation point, was used as the NF-κB probe of HIV-1. The 5'-terminus of the probe was radiation-labeled with ^32 p in the usual way using [γ-^32 P]ATP and polynucleotide kinase. […] At the same time, a sample in which a large quantity of non-labeled probe was added to the reaction solution was prepared and the same reaction was carried out as a competitive assay. Thereafter, the ^32 P-labeled NF-κB probe was added thereto to carry out 20 minutes of binding reaction at room temperature. After the reaction, 4% unmodified polyacrylamide gel electrophoresis was carried out in order to separate the DNA-NF-κB complex from free oligonucleotide. The gel was subjected to autoradiography, and NF-κB in the nucleoprotein extract was determined by an image analyzer (BIO-RAD, Model GS-700 Imaging Densitometer).
The action of the test compound to inhibit activation of NF-κB binding by PMA stimulation of U1 cells (inhibition ratio, %) is shown in Table 1.
V3: Cepharanthine control; reaction (2.5 hours) of U1 cells in the
presence of 0.1 μg/ml of cepharanthine
V4: Cepharanthine control; reaction (2.5 hours) of U1 cells in the
presence of 1 μg/ml of cepharanthine
V6: Reaction (2 hours) of U1 cells in the presence of 0.1 μg/ml of
cepharanthine + stimulation (0.5 hour) with 10 ng/ml of PMA
V7: Reaction (2 hours) of U1 cells in the presence of 1 μg/ml of
**: V6, V7, V8 and V9 vs. V5

[3] = test system: HIV-1 LTR; assay: HIV-1 LTR CAT assay: inhibition of HIV-1 LTR transcription activity in HeLa cells; type: cell-based; settings: 48 hours; for % Inhibition: vs. V3 (PMA)
Experimental: Inhibition action on HIV-1 LTR transcription activity
In order to examine effect of a test compound cepharanthine on the HIV-1 transcription activity, CAT assay was carried out by the following method.
A plasmid in which chloramphenicol acetyltransferase (CAT) gene has been linked to the downstream of HIV-1 LTR gene was introduced by lipofection into HeLa cells adjusted to a density of 1×10^6 cells, and the resulting cells were cultured in the presence or absence of the test compound and phorbol 12-myristate 13-acetate (PMA). After 48 hours of the culturing, the cells were collected and washed to prepare a cell extract using a freeze-thawing method. The thus prepared cell extract was allowed to react with acetyl CoA and [^14 C]-labeled chloramphenicol (CM), and the thus formed acetyl[^14 C]CM was separated by a thin layer chromatography, subjected to autoradiography and then […] measured using an image analyzer (BIO-RAD, Model GS-700 Imaging Densitometer).
V4: HeLa cells were cultured in the presence of cepharanthine (0.1
μg/ml) + PMA (10 ng/ml)
V5: HeLa cells were cultured in the presence of cepharanthine (1 μg/ml

[4] = 0.1 μg/ml, 2 hours + PMA 10 ng/ml, 0.5 hour
[5] = 1 μg/ml, 2 hours + PMA 10 ng/ml, 0.5 hour

For COc1cc2c3cc1Oc1c(OC)c(OC)cc4c1[C@@H](Cc1ccc(O)c(c1)Oc1ccc(cc1)C[C@@H]3N(C)CC2)N(C)CC4 [berbamine], the LD50 ([1]; intravenous) was 18.8 mg/kg.

With COc1cc2c3cc1Oc1c4c(cc5c1[C@H](Cc1ccc(cc1)Oc1cc(ccc1O)C[C@H]3N(C)CC2)N(C)CC5)OCO4 [cepharanoline] the LD50 ([1]; intravenous) was 34.3 mg/kg.

For COc1ccc2cc1Oc1ccc(cc1)C[C@H]1c3c(cc4c(c3Oc3cc5c(cc3OC)CCN(C)[C@@H]5C2)OCO4)CCN1C [cepharanthine], the Area [2, 4] was 70.45 mm × mm, the “Average (OD)” value [2, 4] was 0.491 OD and the Labeled amount [2, 4] was 34.59 OD × mm × mm. The Area ([2]; 0.1 μg/ml, 2.5 hours, no PMA) was 70.53 mm × mm, the “Average (OD)” value ([2]; 0.1 μg/ml, 2.5 hours, no PMA) was 0.447 OD and the Labeled amount ([2]; 0.1 μg/ml, 2.5 hours, no PMA) was 31.53 OD × mm × mm. The Area [2, 5] was 50.63 mm × mm, the “Average (OD)” value [2, 5] was 0.490 OD and the Labeled amount [2, 5] was 24.81 OD × mm × mm. The Area ([2]; 1 μg/ml, 2.5 hours, no PMA) was 69.15 mm × mm, the “Average (OD)” value ([2]; 1 μg/ml, 2.5 hours, no PMA) was 0.442 OD and the Labeled amount ([2]; 1 μg/ml, 2.5 hours, no PMA) was 30.56 OD × mm × mm. The inhibition at 0.1 µg/mL ([2]; 0.1 μg/ml, 2 hours + PMA 10 ng/ml, 0.5 hour, vs. V5 (PMA)) was 24.7%, the inhibition at 0.1 µg/mL ([2]; 0.1 μg/ml, 2.5 hours, no PMA, vs. V2 (untreated U1 cells)) was 10.9% and the inhibition at 1 µg/mL ([2]; 1 μg/ml, 2 hours + PMA 10 ng/ml, 0.5 hour, vs. V5 (PMA)) was 46%. The inhibition at 1 µg/mL ([2]; 1 μg/ml, 2.5 hours, no PMA, vs. V2 (untreated U1 cells)) was 13.7%, the Area ([3]; 0.1 μg/ml + PMA (10 ng/ml)) was 54.31 mm × mm and the “Average (OD)” value ([3]; 0.1 μg/ml + PMA (10 ng/ml)) was 0.892 OD. For the same compound, the Labeled amount ([3]; 0.1 μg/ml + PMA (10 ng/ml)) was 48.44 OD × mm × mm, the “% Inhibition” value ([3]; 0.1 μg/ml + PMA (10 ng/ml)) was 33.1% and the Area ([3]; 1 μg/ml + PMA (10 ng/ml)) was 41.00 mm × mm. For the same compound, the “Average (OD)” value ([3]; 1 μg/ml + PMA (10 ng/ml)) was 0.867 OD, the Labeled amount ([3]; 1 μg/ml + PMA (10 ng/ml)) was 35.55 OD × mm × mm and the “% Inhibition” value ([3]; 1 μg/ml + PMA (10 ng/ml)) was 50.9%. The LD50 ([1]; intravenous) was 47 mg/kg and the LD50 ([1]; oral) was 3410 mg/kg.

Compound COc1cc2c3c(c1OC)Oc1ccc(cc1)C[C@@H]1c4c(cc(OC)c(OC)c4Oc4ccc(cc4)C[C@H]3N(C)CC2)CCN1C [cycleanine] has an LD50 ([1]; intravenous) of 62.5 mg/kg.

Compound COc1ccc2cc1Oc1ccc(cc1)C[C@H]1c3c(cc(OC)c(O)c3Oc3cc4c(cc3OC)CCN(C)[C@@H]4C2)CCN1C [homoaromoline] has an LD50 ([1]; intravenous) of 42.4 mg/kg.

For COc1ccc2cc1Oc1ccc(cc1)C[C@H]1c3cc(c(OC)cc3CCN1C)Oc1c(OC)c(OC)cc3c1[C@@H](C2)N(C)CC3 [isotetrandrine], the LD50 ([1]; intravenous) was 32.5 mg/kg.
